One series has as its system WI-38 (lung fibroblasts). Nature of the series: MTT proliferation assay, WI-38. Type of series: cell-based. The conditions noted are these: Homo sapiens, 72 h, normal lung fibroblasts. Summed up: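 5000 cells/well, DMEM + 10% FBS; compound added at 24 h, 0.01–100 μM, 72 h, 37 °C/5% CO2. MTT 3 h, DMSO, OD 570 nm → % growth (NIH protocol) → IC50 by regression.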
For another series, the system named is MCF-7 cells. Nature of the series: Seahorse XF Cell Mito Stress Test, MCF-7. Format: cell-based, Human. On the procedure: The Seahorse XF Cell Mito Stress Test was used for measurements of mitochondrial respiration by direct assessment of the oxygen consumption rate (OCR), of treated and untreated cells on the Seahorse XFe24 Analyzer, (Agilent, Santa Clara, CA, USA). Key parameters of the mitochondrial function were measured by direct assessment of the OCR, by use of the Mito Stress Test (Agilent, Agilent, Santa Clara, CA, USA). The Mito Stress Test uses modulators of respiration that target components of the electron transport chain in the mitochondria. The compounds added to the reaction were: oligomycin, mitochondrial oxidative phosphorylation uncoupler carbonyl cyanide-4-(trifluoromethoxy)phenylhydrazone (FCCP), and the mix of rotenone and antymicin A. These were directly injected to the cell growth medium containing cells treated with selected L-ASA derivatives to determine the production of ATP, respiration at maximal level, and the non-mitochondrial respiration. Measured parameters were used for calculation of the proton leakage, spare respiratory capacity, and basal respiration. The assay was performed according to the manufacturer’s instructions (SeaHorse—Mito Stress Test: Agilent, Santa Clara, CA, USA). Briefly, selected compound 4e was tested due to its selective antiproliferative effect on MCF-7 cells. […] […] The experiment was performed with biological duplicates.

A further series has as its system NOS2. Nature of the series: Western blot of NOS2 in MCF-7 cells. Type of series: cell-based, Human. The conditions noted are these: MCF-7, 6.72 µM, 48 h. As to the method: (§1) Protein lysates were prepared using RIPA buffer containing cocktail of protease and phosphatase inhibitors (Roche, Basel, Switzerland). Amounts of 50 μg of proteins were resolved on 12% SDS polyacrylamide gels using the Mini-protean cell (Bio-Rad, Hercules, CA, USA). The membranes were incubated with primary antibodies raised against hydroxy-HIF-1α (Pro564) (HIF-1α, 1:1000, rabbit mAb, Cell Signaling Technology, NL) and NOS2 (1:500, mouse mAb, SantaCruzBiotechnology, Dallas, TX, USA) at 4 °C overnight. A secondary antibody linked to anti-mouse (1:1000, Dako, Santa Clara, CA, USA) was used. The signal was visualized by the Western Lightening Chemiluminescence Reagent Plus Kit (Perkin Elmer, Massachusetts, MA, USA) on the ImageQuant LAS500 (GE Healthcare, Chicago, IL, USA), and as a loading control, α-tubulin (1:1000, mouse mAb, Sigma, Sigma Aldrich, Darmstadt, Germany) was used. The signal intensities of bands were normalized and compared in Quantity One software (Bio-Rad, Hercules, CA, USA). Differences in protein relative expression status obtained by western blot analysis were analyzed by two-tailed, paired t-tests (p < 0.05) in the Statistica software package (v.12.0).

For series [1], the system named is hydroxylated HIF-1α (Pro564). Nature of the series: Western blot of hydroxy-HIF-1α in MCF-7 cells. Format: cell-based, Human. The conditions noted are these: MCF-7, 6.72 µM, 48 h. As to the method: as §1
Series [2] relates to tested cell lines (A549, CFPAC-1, HCT-116, HeLa, HepG2, MCF-7, SW620, WI-38, HFF-1). Description: MTT proliferation assay, whole tested cell panel. Format: cell-based, Human. The conditions noted are these: 0.01 µM to 100 µM, 72 h. On the procedure:
The C-6 substituted 1,2,3-triazole derivatives of L-ASA within the C5-OH group ([…], 4i, 4k−4t, and 4v) and with the C4=C5 double bond (7c−7g and 7i−7q) were evaluated against seven malignant tumor cell lines: lung adenocarcinoma (A549), ductal pancreatic adenocarcinoma (CFPAC-1), colorectal carcinoma (HCT-116), cervical carcinoma (HeLa), hepatocellular carcinoma (HepG2), breast adenocarcinoma (MCF-7), colorectal adenocarcinoma, and metastatic (SW620); as well as normal cell lines: lung fibroblasts (WI-38) and foreskin fibroblasts (HFF-1) (Table 3, Table S1, Supplementary Information). L-ASA was used as a positive control, and carboxyamidotriazole, a known antiproliferative agent that inhibits tumor cell growth, invasion, and metastasis, and 5-fluorouracil (5-FU), were used as reference compounds.
Human tumor cell lines HeLa (cervical carcinoma), SW620 (colorectal adenocarcinoma, metastatic), A549 (lung adenocarcinoma), MCF−7 (breast adenocarcinoma), CFPAC-1 (pancreatic adenocarcinoma, metastatic), HCT-116 (colorectal carcinoma), and HepG2 (hepatocellular carcinoma), and normal cell lines HFF-1 (foreskin fibroblasts) and WI-38 (immortalized human lung fibroblast), were from the US American Type Culture Collection (ATCC, Manassas, VA, USA). Cells were cultured in a liquid nutrient medium (Dulbecco’s Modified Eagle Medium, LONZA, Basel, Switzerland) supplemented with 10% fetal bovine serum (FBS, Gibco, Grand Island, NY, USA), 2 mM L-glutamine (GIBCO, Grand Island, NY, USA), 100 μg/mL penicillin, and 100 μg/mL streptomycin (LONZA, Basel, Switzerland), in an incubator (NÜVE, Ankara, Turkey), at a humid atmosphere with 5% CO2 at 37 °C. Trypsin/EDTA Solution (Lonza, Basel, Switzerland), was used for cell passaging and cell detachment.
Adherent cells were seeded on 96 well microtiter plates (Falcon, New York, NY, USA) at a seeding density of 5000 cells per well, added in 150 μL of cell suspension in a nutrient medium. 24 h after seeding, cells were treated with compound 4b–4g, 4i, 4k–4t, 4v, 7c–7g, and 7i–7q dilutions in the range of 0.01 μM to 100 μM. L-ascoric acid (Sigma Aldrich, Darmstadt, Germany) and Carboxyamidotriazole (Sigma Aldrich, Darmstadt, Germany) were used as control compounds. Incubation of the cells with the compounds were performed for 72 h in a 5% CO2, in humid atmosphere at 37 °C. After incubation, nutrient medium was removed and 40 μL of the MTT reagent ([…]-2,5-diphenyltetrazole bromide (Invitrogen, Carlsbad, CA, USA) was added to each well. 3 h after incubation, 160 μL of DMSO (VWR CHEMICALS, Radnor, PA, USA) were added to each well to dissolve the crystals of purple formazane. The absorbance was measured at 570 nm (TECAN SUNRISE Microtiter plate reader (Männedorf, Switzerland). The experimentally measured optical densities (OD) were converted to the PG (percentage of growth), using the formulas according to the protocol assumed by NIH (National Institute of Health). The IC50 values (concentration causing 50% cell growth inhibition) for each compound were calculated by regression analysis of the survival count curve of the concentrations of the tested compounds. The results were processed in Excel 2010 (Microsoft, Redmond, WA, USA).

On the set-up of series [3]: method as in PMID 20925411. The conditions noted are these: experimental acid dissociation constant; cited from earlier work.

The structures appear in SMILES notation. Entries after “also recorded” stand apart in the source; their conditions may differ.

Consider `O=C1O[C@H]([C@@H](O)Cn2cc(-c3ccc(Br)cc3)nn2)C(O)=C1O` [Compound 4e, 6-[4-(4-bromophenyl)-1,2,3-triazol-1-yl]-6-deoxy-L-ascorbic acid], for which the melting point was 159 to 160 °C. In the series with WI-38 (lung fibroblasts), this compound had an IC50 of 73.9 µM. Further, in the series with MCF-7 cells (MCF-7, 24 h, IC50 concentration (6.72 µM) and 2 × IC50 (13.44 µM)), the “basal respiration and ATP production” value is “increased the basal respiration and ATP production”. In the series on MCF-7 cells (MCF-7, 24 h, lower tested concentration (3.36 µM)), the cellular mitochondrial metabolism entry is given as “lowered cellular mitochondrial metabolism”. Also, in the series with NOS2, the NOS2 expression entry is “decreased expression; also recorded: somewhat decreased”. For the same compound, the “hydroxylated HIF-1α (Pro564) expression” value in series [1] is given as “statistically significant increase; also recorded: strongly increased”.

With `O=C1O[C@H]([C@@H](O)CO)C(O)=C1O` [L-ASA, L-ascorbic acid], the “antiproliferative / cytotoxic effect on the tested cell lines (in words)” value in series [2] is “no effects on the cell growth”. Also, the mitochondrial activity result in the series on MCF-7 cells (24 h, lower concentration (50 mM), Figure 5 panel A (MCF-7 and HFF-1)) is recorded as “did not act on the mitochondrial activity”. In addition, in the series with MCF-7 cells (MCF-7, 24 h, higher concentrations), the “basal cell respiration and ATP production” value was “decreased the basal cell respiration and ATP production”. In addition, the “pKa,2 (experimental)” value in series [3] is on record as 11.4.

The record behind these values is publication PMC6801448, “The Antioxidant and Antiproliferative Activities of 1,2,3-Triazolyl-L-Ascorbic Acid Derivatives” (International Journal of Molecular Sciences, 2019).
